{"source": "patent US20230151069A1", "about": "“Cyclic Peptides” (LIFEARC, priority 2020, published 2023)", "key": {"TAP01 (MoG1K) antibody": {"molecular_target": "TAP01 (MoG1K) antibody", "assay": "Thioacetal bridged cyclic peptide binding ELISA with TAP01 antibody", "set-up": "species or system mouse", "protocol": "(§1) • 1. […] Incubate at 4° C. overnight • 3. Wash the plate (NUNC 384 program) • 4. […] Incubate at RT for 1 hour • 6. Wash the plate (NUNC 384 program) • 7. […] Incubate at 4° C. overnight • 9. Wash the plate (NUNC 384 program) • 10. […] Transfer 30 μL/well onto the assay plate • 12. Incubate at 37° C. for 1 hour • 13. Wash the plate (NUNC 384 program) • 14. […] Incubate at 37° C. for 1 hour 16. Wash the plate (NUNC 384 program) 17. […] Incubate at RT for 10 min in the dark 19.\n(§2) Binding to comparators antibodies was also assessed.\n(§3) Binding to comparator antibodies was also assessed (FIG. 26)."}, "Bapineuzumab": {"system": "Bapineuzumab", "assay": "Cyclic peptide binding ELISA with comparator antibody Bapineuzumab", "protocol": "as §1, §2, §3"}, "TAP01 antibody": {"system": "TAP01 antibody", "assay": "Proline mutated peptide binding to TAP01 antibody using Biacore T200", "set-up": "species or system mouse", "settings": "Biacore T200, FIG. 23"}, "BAN2401": {"system": "BAN2401", "assay": "Cyclic peptide binding ELISA with comparator antibody BAN2401", "settings": "FIGS. 7, 22", "protocol": "as §1\n(§4) Binding of the TAP01 antibody has been assessed to these thioacetal bridged cyclic peptide variants by ELISA (FIGS. 20-22 and Table 5). Binding to comparators antibodies was also assessed."}, "Solanezumab": {"system": "Solanezumab", "assay": "Cyclic peptide binding ELISA with comparator antibody Solanezumab", "settings": "FIGS. 7, 22", "protocol": "as §1, §4"}, "[1]": {"system": "disulphide bridged 1-14 cyclic peptide 3, 12", "settings": "mouse 5 (best immune response), FIG. 8", "protocol": "• 1. […] Incubate at 4° C. overnight • 3. Wash the plate (NUNC 384 program) • 4. […] Incubate at RT for 1 hour • 6. Wash the plate (NUNC 384 program) • 7. […] Incubate at 4° C. overnight • 9. Wash the plate (NUNC 384 program) • 10."}, "pE3-42 amyloid peptide": {"system": "pE3-42 amyloid peptide", "assay": "Immunisation with disulphide bridged peptide, sera pE3-42 peptide binding ELISA", "format": "in vivo, mice and rabbits", "settings": "sera after immunisation with disulphide bridged peptide", "protocol": "• 1. Coat 384-well plate with 30 μL/well of 100 ng/ml PSL amyloid 1-42 peptide (Human-Peptide Specialty Laboratories-CEM1904161) diluted in carb/bicarb buffer • 2. Incubate at 37° C. for 1 hour • 3. Wash the plate (NUNC 384 program) • 4. […] Incubate at 4° C. overnight • 6. Wash the plate (NUNC 384 program) • 7. […] Transfer 30 μL/well onto the assay plate • 10. Incubate at 37° C. for 1 hour • 11. Wash the plate (NUNC 384 program) • 12. […] Incubate at 37° C. for 1 hour • 14. Wash the plate (NUNC 384 program) • 15. […] Incubate at RT for 10 min in the dark • 17. […] Coat 384-well plate with 30 μL/well of 100 ng/ml PSL amyloid pE3-42 peptide (Human-Peptide Specialty Laboratories-CEM062210 Pyr) diluted in carb/bicarb buffer • 2. Incubate at 37° C. for 1 hour • 3. Wash the plate (NUNC 384 program) • 4. […] Incubate at 4° C. overnight • 6. Wash the plate (NUNC 384 program) • 7. […] Transfer 30 μL/well onto the assay plate • 10. Incubate at 37° C. for 1 hour • 11. Wash the plate (NUNC 384 program) • 12. […] Incubate at 37° C. for 1 hour • 14. Wash the plate (NUNC 384 program) • 15. […] Incubate at RT for 10 min in the dark • 17."}, "4-42 amyloid peptide": {"system": "4-42 amyloid peptide", "settings": "sera after immunisation with disulphide bridged peptide, ELISA", "protocol": "• 1. […] Wash the plate (NUNC 384 program) • 4. […] Wash the plate (NUNC 384 program) • 7. […] Incubate at 37° C. for 1 hour • 13. Wash the plate (NUNC 384 program) • 14."}, "ProBioDrug 24_2_3": {"system": "ProBioDrug 24_2_3", "assay": "Cyclic peptide binding ELISA with comparator antibody ProBioDrug 24_2_3", "settings": "FIG. 7", "protocol": "(§5) • 1. […] Incubate at 4° C. overnight • 3. Wash the plate (NUNC 384 program) • 4. […] Incubate at RT for 1 hour • 6. Wash the plate (NUNC 384 program) • 7. […] Incubate at 4° C. overnight • 9. Wash the plate (NUNC 384 program) • 10. […] Transfer 30 μL/well onto the assay plate • 13. Incubate at 37° C. for 1 hour • 14. Wash the plate (NUNC 384 program) • 15. […] Incubate at 37° C. for 1 hour • 17. Wash the plate (NUNC 384 program) • 18.\nas §1\n(§6) ProBioDrug 6_1_6 (Deposit No. DSM ACC 2924) and ProBioDrug 24_2_3 (Deposit No. DSM ACC 2926) are described in […]."}, "[2]": {"system": "biotinylated cyclised peptide", "assay": "Sera of actively immunised 5XFAD and Tg4-42 mice, binding ELISA to cyclised peptide", "format": "in vivo, mouse", "settings": "FIGS. 32 and 33", "protocol": "as §1\nAnimals (SXFAD and Tg4-42 mice) were immunised with thioacetal bridged cyclic peptide 1-14 and sera were screened for binding to biotinylated cyclised peptide as previously described above."}, "[3]": {"assay": "Stability comparison of both versions of the constrained cyclic peptide", "format": "physicochemical", "settings": "listed as thioacetal bridged peptide"}, "[4]": {"system": "thioacetal bridged 1-14 cyclic peptide 3,12", "assay": "Immunisation with thioacetal bridged peptide, sera binding ELISA to thioacetal bridged cyclic peptide", "format": "in vivo, rabbits and mice", "protocol": "as §1"}, "ProBioDrug 6_1_6": {"system": "ProBioDrug 6_1_6", "assay": "Cyclic peptide binding ELISA with comparator antibody ProBioDrug 6_1_6", "settings": "FIG. 7", "protocol": "as §5, §1, §6"}}, "note": "Read-outs that look alike come from different tables or passages of the source. *1 amine or outer side, *2 acyl side, *3 side chain or, on linkers, in order; H or OH if unused. Where a SMILES comes first, the peptide text is derived from it. Bridges are numbered along the chain shown (N, C = ends). CH2 = C([*:1])[*:2]"}
{"compound": "CC(C)[C@H](NC(=O)[C@H](CCC(=O)O)NC(=O)[C@@H]1CSCSC[C@H](N)C(=O)N[C@@H](C)C(=O)N[C@@H](CCC(=O)O)C(=O)N[C@@H](Cc2ccccc2)C(=O)N[C@@H](CCCNC(=N)N)C(=O)N[C@@H](Cc2c[nH]cn2)C(=O)N[C@@H](CC(=O)O)C(=O)N[C@@H](CO)C(=O)NCC(=O)N1)C(=O)N[C@@H](Cc1c[nH]cn1)C(=O)N[C@@H](Cc1c[nH]cn1)C(=O)O", "note": "[Peptide 1, 10] (H-CAEFRHDSGCEVHH-OH; linker 1-10 via CH2; N-terminus and C-terminus assumed)", "values": [{"measurement": "EC50", "setting": "TAP01 (MoG1K) antibody; TAP01 (MoG1K), FIG. 25, unit inferred, read-out: calculated EC50 value", "result": 12, "unit": "nM"}, {"measurement": "binding to comparator antibody Bapineuzumab", "setting": "Bapineuzumab; FIGS. 7, 22, 26, 34", "result": "Binding to the comparator antibody Bapineuzumab was seen"}]}
{"compound": "PPEFRHDSGYEVHH (Residue 1 and 2 (D to P and A to P))", "values": [{"measurement": "binding to TAP01 antibody", "setting": "TAP01 antibody", "result": "bind in a dose dependant manner"}]}
{"compound": "DAPFRHDSGYEVHH (Residue 3 (E to P))", "values": [{"measurement": "binding to TAP01 antibody", "setting": "TAP01 antibody", "result": "no binding observed"}]}
{"compound": "CC(C)[C@H](NC(=O)[C@H](CCC(=O)O)NC(=O)[C@@H]1CSCSC[C@H](NC(=O)[C@@H](N)CC(=O)O)C(=O)N[C@@H](CCC(=O)O)C(=O)N[C@@H](Cc2ccccc2)C(=O)N[C@@H](CCCNC(=N)N)C(=O)N[C@@H](Cc2c[nH]cn2)C(=O)N[C@@H](CC(=O)O)C(=O)N[C@@H](CO)C(=O)NCC(=O)N1)C(=O)N[C@@H](Cc1c[nH]cn1)C(=O)N[C@@H](Cc1c[nH]cn1)C(=O)O", "note": "[Peptide 2, 10] (H-DCEFRHDSGCEVHH-OH; linker 2-10 via CH2)", "values": [{"measurement": "EC50", "setting": "TAP01 (MoG1K) antibody; TAP01 (MoG1K) binding to thioacetal bridged cyclic peptide variants, Table 5, read-out: EC50", "result": 1.33, "unit": "nM"}, {"measurement": "binding to comparator antibody BAN2401", "setting": "BAN2401", "result": "low affinity"}, {"measurement": "binding to comparator antibody Solanezumab", "setting": "Solanezumab", "result": "low affinity"}, {"measurement": "binding to comparator antibody Bapineuzumab", "setting": "Bapineuzumab; FIGS. 7, 22, 26, 34", "result": "able to bind"}, {"measurement": "binding to comparator antibody Bapineuzumab", "setting": "Bapineuzumab; FIGS. 7, 22, 26, 34, listed as cyclic peptide 2, 10", "result": "Binding to the comparator antibody Bapineuzumab was seen"}]}
{"compound": "DA*CFRHDSGYE*CHH-Biotin (*S—S* bridge) [1-14 cyclic peptide (disulphide bridged)]", "values": [{"measurement": "serum titre to the disulphide bridged cyclic peptide", "setting": "[1]", "result": "1/3200"}, {"measurement": "sera binding to pE3-42 amyloid peptide", "setting": "pE3-42 amyloid peptide", "result": "Minimal binding"}, {"measurement": "sera binding to 4-42 amyloid peptide", "setting": "4-42 amyloid peptide", "result": "Minimal binding"}]}
{"compound": "DAC*FRHDSGYEC*HH-[Cys]- amide (*S—CH2—S* bridged) [1-14 cyclic peptide (thioacetal bridged)]", "values": [{"measurement": "binding to comparator antibody ProBioDrug 24_2_3", "setting": "ProBioDrug 24_2_3", "result": "None of the comparator antibodies tested were able to bind"}, {"measurement": "binding of TAP01 to the cyclic peptide (hairpin epitope)", "setting": "TAP01 (MoG1K) antibody; FIG. 7", "result": "able to bind"}, {"measurement": "immune response, sera binding to biotinylated cyclised peptide", "setting": "[2]", "result": "good immune response"}, {"measurement": "binding to comparator antibody BAN2401", "setting": "BAN2401", "result": "None of the comparator antibodies tested were able to bind"}, {"measurement": "stability compared with disulphide bridged cyclic peptide", "setting": "[3]", "result": "more chemically stable"}, {"measurement": "binding to comparator antibody Solanezumab", "setting": "Solanezumab", "result": "None of the comparator antibodies tested were able to bind"}, {"measurement": "titres of response compared with disulphide bridged peptide", "setting": "[4]; mice", "result": "higher titres"}, {"measurement": "serum titre to thioacetal bridged cyclic peptide", "setting": "[4]; mice 3 and 4, FIG. 13", "result": "1/24300"}, {"measurement": "serum titre to thioacetal bridged cyclic peptide", "setting": "[4]; mouse 2, FIG. 13", "result": "1/72900"}, {"measurement": "immune response after immunisation", "setting": "[4]; rabbits and mice, FIG. 13", "result": "immune response was generated"}, {"measurement": "binding to comparator antibody ProBioDrug 6_1_6", "setting": "ProBioDrug 6_1_6", "result": "None of the comparator antibodies tested were able to bind"}, {"measurement": "binding to comparator antibody Bapineuzumab", "setting": "Bapineuzumab; FIGS. 7, 22, 26, 34", "result": "None of the comparator antibodies tested were able to bind"}]}
{"compound": "PPPFRHDSGYEVHH (Residue 1, 2 and 3 (D to P and A to P and E to P))", "values": [{"measurement": "binding to TAP01 antibody", "setting": "TAP01 antibody", "result": "bind in a dose dependant manner"}]}
{"compound": "CC(C)[C@H](NC(=O)[C@H](CCC(=O)O)NC(=O)[C@@H]1CSCSC[C@H](N)C(=O)N[C@@H](C)C(=O)N[C@@H](CCC(=O)O)C(=O)N[C@@H](Cc2ccccc2)C(=O)N[C@@H](CCCNC(=N)N)C(=O)N[C@@H](Cc2c[nH]cn2)C(=O)N[C@@H](CC(=O)O)C(=O)N[C@@H](CO)C(=O)NCC(=O)N1)C(=O)N[C@@H](Cc1c[nH]cn1)C(=O)N[C@@H](Cc1c[nH]cn1)C(=O)O", "note": "[1, 10] (H-CAEFRHDSGCEVHH-OH; linker 1-10 via CH2; N-terminus and C-terminus assumed)", "values": [{"measurement": "EC50", "setting": "TAP01 (MoG1K) antibody; TAP01 (MoG1K) binding to thioacetal bridged cyclic peptide variants, Table 7, read-out: EC50", "result": 12, "unit": "nM"}]}
